Source: ChEMBL document CHEMBL1201862, “PubChem BioAssay data set” (2004)
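How tested: cells in 96-well plates exposed to compound for 48 hours at five concentrations. Abbreviation: GI50, concentration required for 50% inhibition of growth.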 Activity calls are given as the source filed them. No stated cut-off is given here; in the data, active = GI50 up to about 1.1 µM and inactive = higher.

Legend:
Assay in all cases: NCI anticancer screen, dose series, 48 h
[1] = tested on: HL-60
[2] = tested on: CCRF-CEM
[3] = tested on: SNB-75
[4] = tested on: HOP-18
[5] = tested on: M14
[6] = tested on: HCT-116
[7] = tested on: IGROV-1
[8] = tested on: EKVX
[9] = tested on: SW-620
[10] = tested on: ACHN
[11] = tested on: 786-0
[12] = tested on: SK-OV-3
[13] = tested on: LXFL 529
[14] = tested on: HCC 2998
[15] = tested on: DMS-114
[16] = tested on: SK-MEL-2
[17] = tested on: COLO 205
[18] = tested on: UACC-257
[19] = tested on: TK-10
[20] = tested on: SF-268
[21] = tested on: KM-20L2
[22] = tested on: M19-MEL
[23] = tested on: DMS-273
[24] = tested on: HOP-62
[25] = tested on: SR
[26] = tested on: SNB-78
[27] = tested on: CAKI-1
[28] = tested on: A498
[29] = tested on: SN12C
[30] = tested on: SNB-19
[31] = tested on: NCI-H23
[32] = tested on: HOP-92
[33] = tested on: HCT-15
[34] = tested on: OVCAR-4
[35] = tested on: SF-295
[36] = tested on: KM12
[37] = tested on: RXF 393
[38] = tested on: SF-539
[39] = tested on: NCI-H226
[40] = tested on: XF498
[41] = tested on: A549
[42] = tested on: SK-MEL-28
[43] = tested on: NCI-H460
[44] = tested on: OVCAR-8
[45] = tested on: UO-31
[46] = tested on: U-251
[47] = tested on: MOLT-4
[48] = tested on: HT-29
[49] = tested on: NCI-H522
[50] = tested on: DLD-1
[51] = tested on: Malme-3M
[52] = tested on: OVCAR-3
[53] = tested on: SK-MEL-5
[54] = tested on: UACC-62
[55] = tested on: K562
[56] = tested on: LOX IMVI
[57] = tested on: OVCAR-5
[58] = tested on: RPMI-8226
[59] = tested on: RXF 631
[60] = tested on: MCF7
[61] = tested on: NCI/ADR-RES

Measured: GI50

O=C1NC(=O)C(=O)C(c2nc3ccccc3s2)C1=O
> 100 µM: [33]
inactive: [1] > 100 µM | [2] > 100 µM | [3] > 100 µM | [4] > 100 µM | [5] > 100 µM | [6] > 100 µM | [7] > 100 µM | [8] > 100 µM | [9] > 100 µM | [10] > 100 µM | [11] > 100 µM | [12] > 100 µM | [13] > 100 µM | [14] > 100 µM | [15] > 100 µM | [16] > 100 µM | [17] > 100 µM | [18] > 100 µM | [19] > 100 µM | [20] > 100 µM | [21] > 100 µM | [22] > 100 µM | [23] > 100 µM | [24] > 100 µM | [25] > 100 µM | [26] > 100 µM | [27] > 100 µM | [28] > 100 µM | [29] > 100 µM | [30] > 100 µM | [31] > 100 µM | [32] > 100 µM | [34] > 100 µM | [35] > 100 µM | [36] > 100 µM | [37] > 100 µM | [38] > 100 µM | [39] > 100 µM | [40] > 100 µM | [41] > 100 µM | [42] > 100 µM | [43] > 100 µM | [44] > 100 µM | [45] > 100 µM | [46] > 100 µM | [47] > 100 µM | [48] > 100 µM | [49] > 100 µM | [50] > 100 µM | [51] > 100 µM | [52] > 100 µM | [53] > 100 µM | [54] > 100 µM

O=C1Nc2cc(F)ccc2C1=O
> 100 µM: [33]
inactive: [1] > 100 µM | [2] > 100 µM | [3] > 100 µM | [4] > 100 µM | [5] > 100 µM | [7] > 100 µM | [8] > 100 µM | [9] 73.3 µM | [10] > 100 µM | [11] > 100 µM | [12] > 100 µM | [13] > 100 µM | [14] > 100 µM | [15] 50.8 µM | [16] > 100 µM | [17] 72.3 µM | [18] > 100 µM | [19] > 100 µM | [20] > 100 µM | [21] > 100 µM | [22] > 100 µM | [23] > 100 µM | [24] > 100 µM | [55] > 100 µM | [26] > 100 µM | [27] > 100 µM | [28] > 100 µM | [29] > 100 µM | [30] > 100 µM | [31] > 100 µM | [32] > 100 µM | [34] > 100 µM | [35] > 100 µM | [36] > 100 µM | [37] > 100 µM | [38] > 100 µM | [39] > 100 µM | [40] > 100 µM | [56] > 100 µM | [41] > 100 µM | [42] > 100 µM | [43] > 100 µM | [57] > 100 µM | [44] > 100 µM | [45] > 100 µM | [58] > 100 µM | [46] > 100 µM | [47] > 100 µM | [48] > 100 µM | [49] 60.7 µM | [50] > 100 µM | [51] > 100 µM | [53] > 100 µM | [54] > 100 µM

Cc1ncc(CCl)c(CCl)c1O
inactive: [1] > 100 µM | [2] > 100 µM | [3] > 100 µM | [5] > 100 µM | [6] > 100 µM | [7] > 100 µM | [10] > 100 µM | [11] > 100 µM | [12] > 100 µM | [13] > 100 µM | [14] > 100 µM | [15] > 100 µM | [16] > 100 µM | [17] > 100 µM | [59] > 100 µM | [20] > 100 µM | [22] > 100 µM | [23] > 100 µM | [24] > 100 µM | [25] > 100 µM | [55] > 100 µM | [27] > 100 µM | [28] > 100 µM | [29] > 100 µM | [31] > 100 µM | [32] > 100 µM | [34] > 100 µM | [38] > 100 µM | [39] > 100 µM | [40] > 100 µM | [42] > 100 µM | [45] > 100 µM | [58] > 100 µM | [47] > 100 µM | [49] > 100 µM | [50] > 100 µM | [51] > 100 µM | [54] > 100 µM

S=P1(Sc2ccccc2)Oc2ccc3ccccc3c2-c2c(ccc3ccccc23)O1
inactive: [1] > 77.4 µM | [2] > 100 µM | [3] > 100 µM | [4] > 92.5 µM | [6] > 100 µM | [7] > 100 µM | [8] > 100 µM | [9] > 100 µM | [12] > 100 µM | [14] > 100 µM | [15] > 58.6 µM | [16] > 100 µM | [17] > 100 µM | [18] > 100 µM | [20] > 100 µM | [21] 67.1 µM | [22] > 100 µM | [23] > 100 µM | [24] > 100 µM | [55] 80.7 µM | [60] 71.8 µM | [26] > 100 µM | [27] > 83.9 µM | [28] > 84.7 µM | [29] > 100 µM | [30] > 100 µM | [61] > 100 µM | [31] > 100 µM | [32] > 100 µM | [34] > 100 µM | [35] > 100 µM | [36] > 100 µM | [37] > 83 µM | [38] > 100 µM | [39] > 100 µM | [40] > 100 µM | [56] > 79.6 µM | [41] > 100 µM | [42] > 78.5 µM | [43] > 100 µM | [57] > 100 µM | [44] > 100 µM | [45] > 100 µM | [58] > 100 µM | [46] > 95.5 µM | [47] > 82.6 µM | [48] 51.5 µM | [49] 49.9 µM | [50] > 100 µM | [51] > 100 µM | [52] 70 µM | [53] > 100 µM | [54] > 100 µM
> 80.4 µM: [33]
